Measured values reported in paper PMC7949122 (The Journal of Biological Chemistry, 2021).
“Also recorded” adds a separate entry of the source. Each block holds one molecule with its values, some of them ahead of it. Non-standard residues stand in square brackets, D forms with d. Residues, ends and D or L forms follow the SMILES beside them. Hyp = O=C(O)[C@@H]1C[C@@H](O)CN1; 2Thi = N[C@@H](Cc1cccs1)C(=O)O; Gly(N-cHex) = O=C(O)CNC1CCCCC1

Legend:
[1] = system: endogenous B1R in HeLa cells (ERK1/2 phosphorylation); experiment: ERK1/2 phosphorylation (western blot) after B1R stimulation, AltB2RFlag versus Mock stable HeLa cells; assay type: cell-based, human; details: 1 μM NG29, n = 3
[2] = target: T1, mutant human B2R(Ø) lacking AltB2R expression (Gαi3) (Homo sapiens, UniProt P30411); experiment: BRET G protein coupling Gαi3-RLuc2/GFP10-Gγ1, B2R(Ø)-transfected HEK293A cells; assay type: cell-based; details: HEK293-A; relative to maximum B2R-induced BRET response; mean ± SD, n = 4; read-out: Emax, Gαi3/Gγ1 dissociation, B2R(Ø)
T1 construct: expressed in transfected cells; host or cells: HEK293A
T1 sequence (P30411 1-391): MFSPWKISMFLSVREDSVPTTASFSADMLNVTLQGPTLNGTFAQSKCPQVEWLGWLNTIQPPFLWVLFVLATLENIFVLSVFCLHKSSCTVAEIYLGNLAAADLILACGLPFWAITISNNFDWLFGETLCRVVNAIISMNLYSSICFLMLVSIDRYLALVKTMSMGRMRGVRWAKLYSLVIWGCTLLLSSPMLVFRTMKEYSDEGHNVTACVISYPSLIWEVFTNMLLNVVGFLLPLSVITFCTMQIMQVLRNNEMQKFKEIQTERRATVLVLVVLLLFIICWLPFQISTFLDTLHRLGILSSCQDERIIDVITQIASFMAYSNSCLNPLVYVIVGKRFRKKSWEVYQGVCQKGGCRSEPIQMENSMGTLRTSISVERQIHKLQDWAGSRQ
Description: (§1) To test this hypothesis, we used live-cell bioluminescence resonance energy transfer (BRET) measurements to monitor the activation of G proteins by B2R. HEK293A cells were cotransfected with vectors coding for Gαq-RlucII or Gαi2/3-RlucII, Gβ, GFP10-Gγ1, and B2R or B2R^(Ø). In this experimental setting, the dissociation of Gαq-RlucII or Gαi2/3-RlucII from GFP10-Gγ1 results in a decrease of BRET signals. BRET data in Figure 6, A–C are presented relative to the maximum B2R-induced BRET response.
(§2) D, β-arrestin2 recruitment at the plasma membrane after stimulation with NG291 in HEK293A cells transfected with B2R and B2R^(Ø) by following BRET proximity of β-arr2-RLuc2 and rGFP-CAAX. […] Note.
(§3) BRET assays were performed as previously described ([56]). Briefly, HEK293A cells were grown in 96-well plates for 48 h after transient transfection with 10 μg BRET constructs (Gαq-RLuc2, Gβ1, and GFP10-Gγ1) (Gαi2-Rluc2, Gβ1, and GFP10-Gγ1) (Gαi3-Rluc2, Gβ1, and GFP10-Gγ1) (β-arrestin2-Rluc2 and rGFP-CAAX) and B2R or B2R^(Ø). Cells were washed twice with stimulation buffer (10 mM HEPES pH 7.4, 1 mM CaCl2, 0.5 mM MgCl2, 4.2 mM KCl, 146 mM NaCl, 5.5 mM glucose) and incubated for 1 h in 80 μl stimulation buffer at room temperature. […] BRET readings were collected in the […] (Rluc2) and […] (GFP10) windows, and BRET signal was calculated as a ratio of GFP10 on Rluc2. […]

[3] = target: T2, mutant human B2R(Ø) lacking AltB2R expression (Gαq) (Homo sapiens, UniProt P30411); experiment: BRET G protein coupling Gαq-RLuc2/GFP10-Gγ1, B2R(Ø)-transfected HEK293A cells; assay type: cell-based; details: HEK293-A; relative to maximum B2R-induced BRET response; mean ± SD, n = 3; read-out: Emax, Gαq/Gγ1 dissociation, B2R(Ø)
T2 construct: expressed in transfected cells; host or cells: HEK293A
T2 sequence (P30411 1-391): T1 sequence (P30411 1-391)
Description: as §1, §2, §3

[4] = target: T3, mutant human B2R(Ø) lacking AltB2R expression (Homo sapiens, UniProt P30411); experiment: Competitive displacement of [3H]-BK binding, living B2R(Ø)-transfected HEK293A cells; details: n = 3
T3 construct: expressed in transfected cells; host or cells: HEK293A
T3 sequence (P30411 1-391): T1 sequence (P30411 1-391)
Description: Black and gray, negative controls with secondary antibodies only; blue, ^FlagB2R transfected cells; red, ^FlagB2R^(Ø) transfected cells. […] Reported Kd are expressed in nM. Bmax is expressed in fmol/10^6 cells.
Radioligand competition binding assay was performed using adherent living HEK293A cells transiently transfected with B2R or B2R^(Ø), as we previously described ([54]). […] Saturation binding assays were performed using adherent living HEK293A cells transiently transfected with B2R or B2R^(Ø). […] After the incubation time, cells were washed twice with ice-cold PBS, lysed with 200 μl of 0.1 N sodium hydroxide, and transferred into scintillation vials containing 4 ml scintillation liquid. The radioactivity was measured with a β-counter and data were analyzed using GraphPad 6.01 (GraphPad Software, Inc).

[5] = target: T3, mutant human B2R(Ø) lacking AltB2R expression; experiment: Inositol phosphate (IP1) production, IP-One Gq assay (FRET), B2R(Ø)-transfected HEK293A cells (lacking AltB2R); assay type: cell-based
Description: This construct is a monocistronic version of B2R with the mutation C168T. In this mutant, a premature stop codon is introduced in the AltB2R coding sequence (Q11stop) in a manner synonymous for B2R (L56 L). Thus, the B2R encodes B2R and AltB2R, whereas mutant B2R^(Ø) encodes only B2R.
(§4) To consolidate the western blot data, AlphaLISA assays were also conducted in parallel in the same cell lines for the quantitative analyses of B2R-stimulated ERK1/2 phosphorylation (Fig. 5, B and C).
(§5) Quantitative densitometry analysis of pERK1/2 levels over time (top right). pERK/total ERK ratios were calculated for each time point.
HeLa, HEK293T, and HEK293A cells were maintained in Dulbecco's modified Eagle's medium (DMEM) containing 10% fetal bovine serum (FBS) (Wisent, #080-450) and 1% antibiotic-antimycotic (Wisent, #450-115-EL) under standard conditions. HEK293A cells were transiently transfected with the pcDNA3.1-vector containing the cDNA of human B2R or B2R^(Ø), using polyethylenimine (PEI) or JetPrime (Polyplus). HeLa cells were transiently transfected with B2R and AltB2R constructs using GeneCellin (Bulldog Bio Inc) or JetPrime (Polyplus) transfection reagent, as per the manufacturer’s instructions, and incubated 24 h at 37 °C, unless otherwise stated.
Inositol monophosphate (IP1) production was determined using the IP-One Gq assay kits (Cisbio, #62IPAPEB), according to the manufacturer's instructions. Fluorescence resonance energy transfer (FRET) signals were measured with a Tecan M1000 plate reader.

human B2R (Gαi2) = target: T4, human B2R (Gαi2) (Homo sapiens, UniProt P30411); experiment: BRET G protein coupling Gαi2-RLuc2/GFP10-Gγ1, B2R-transfected HEK293A cells; assay type: cell-based; details: HEK293-A; relative to maximum B2R-induced BRET response; mean ± SD, n = 4; ††p < 0.01 vs B2R(Ø); read-out: Emax, Gαi2/Gγ1 dissociation, B2R
T4 construct: expressed in transfected cells; host or cells: HEK293A
T4 sequence (P30411 1-391): T1 sequence (P30411 1-391)
Description: as §1, §2, §3

[6] = target: T5, mutant human B2R(Ø) lacking AltB2R expression (Gαi2) (Homo sapiens, UniProt P30411); experiment: BRET G protein coupling Gαi2-RLuc2/GFP10-Gγ1, B2R(Ø)-transfected HEK293A cells; assay type: cell-based; details: HEK293-A; relative to maximum B2R-induced BRET response; mean ± SD, n = 4; read-out: Emax, Gαi2/Gγ1 dissociation, B2R(Ø)
T5 construct: expressed in transfected cells; host or cells: HEK293A
T5 sequence (P30411 1-391): T1 sequence (P30411 1-391)
Description: as §1, §2, §3

human B2R (β-arrestin2) = target: T6, human B2R (β-arrestin2) (Homo sapiens, UniProt P30411); experiment: BRET β-arrestin2 recruitment at the plasma membrane, B2R-transfected HEK293A cells; assay type: cell-based; details: HEK293-A
T6 construct: expressed in transfected cells; host or cells: HEK293A
T6 sequence (P30411 1-391): T1 sequence (P30411 1-391)
Description: as §2
(§6) Since both G proteins and β-arrestins commonly participate in activation of MAPK pathways, we extended the BRET analysis to determine the effects of AltB2R on the efficacy of β-arrestin2 recruitment at the plasma membrane of HEK293A cells transfected with vectors coding for β-arrestin2-RLucII, rGFP-CAAX, and B2R or B2R^(Ø). BRET signals were monitored after addition of NG291.
as §3

[7] = system: mutant human B2R(Ø) lacking AltB2R expression (ERK1/2 phosphorylation); experiment: ERK1/2 phosphorylation (AlphaLISA SureFire Ultra), B2R(Ø)- versus B2R-transfected HEK293A cells; assay type: cell-based; details: 1 μM agonist, n = 2
Description: as §4, §5

human B2R (Gαi3) = target: T7, human B2R (Gαi3) (Homo sapiens, UniProt P30411); experiment: BRET G protein coupling Gαi3-RLuc2/GFP10-Gγ1, B2R-transfected HEK293A cells; assay type: cell-based; details: HEK293-A; relative to maximum B2R-induced BRET response; mean ± SD, n = 4; †p < 0.05 vs B2R(Ø); read-out: Emax, Gαi3/Gγ1 dissociation, B2R
T7 construct: expressed in transfected cells; host or cells: HEK293A
T7 sequence (P30411 1-391): T1 sequence (P30411 1-391)
Description: as §1, §2, §3

[8] = target: T8, mutant human B2R(Ø) lacking AltB2R expression (β-arrestin2) (Homo sapiens, UniProt P30411); experiment: BRET β-arrestin2 recruitment at the plasma membrane, B2R(Ø)-transfected HEK293A cells; assay type: cell-based
T8 construct: expressed in transfected cells; host or cells: HEK293A
T8 sequence (P30411 1-391): T1 sequence (P30411 1-391)
Description: as §2, §6, §3

human B2R (Gαq) = target: T9, human B2R (Gαq) (Homo sapiens, UniProt P30411); experiment: BRET G protein coupling Gαq-RLuc2/GFP10-Gγ1, B2R-transfected HEK293A cells; assay type: cell-based; details: HEK293-A; relative to maximum B2R-induced BRET response; mean ± SD, n = 3; †p < 0.05 vs B2R(Ø); read-out: Emax, Gαq/Gγ1 dissociation, B2R
T9 construct: expressed in transfected cells; host or cells: HEK293A
T9 sequence (P30411 1-391): T1 sequence (P30411 1-391)
Description: as §1, §2, §3

B1R = system: B1R; design: method as in PMID 15734727; details: cited from earlier work

Molecule: SarLys[Dphe^8]desArg^9-BK [NG29]
phosphorylated ERK1/2 after B1R stimulation, AltB2RFlag versus mock HeLa cells [1]: not significant; also recorded: did not observe any difference in the increased levels of phosphorylated ERK1/2 between mock and AltB2R^Flag cells

Emax [2]: 60 ± 22%
Emax [3]: 74 ± 8%
binding affinity, B2R versus B2R(Ø) [4]: same affinities
Emax ([5]; HEK293-A, Emax in B2R(Ø) versus B2R cells, read-out: reduction of efficacy (Emax) for IP1 formation in cells without AltB2R expression): 22%
Emax (human B2R (Gαi2)): 100 ± 11%
Emax [6]: 66 ± 12%
Emax (human B2R (β-arrestin2)): 100 ± 10%
Emax (human B2R (Gαi3)): 100 ± 21%
Emax ([8]; HEK293-A, β-arr2-RLuc2 and rGFP-CAAX, mean ± SD, n = 3): 88 ± 9%
Emax (human B2R (Gαq)): 100 ± 10%
Molecule: N=C(N)NCCC[C@H](NC(=O)[C@H](Cc1cccs1)NC(=O)CN(C(=O)[C@H](CO)NC(=O)[C@H](Cc1cccs1)NC(=O)CNC(=O)[C@@H]1C[C@@H](O)CN1C(=O)[C@@H]1CCCN1C(=O)[C@@H](N)CCCNC(=N)N)C1CCCCC1)C(=O)O [NG291, [Hyp^3,Thi^5,^NChg^7,Thi^8]-BK] (H-RP[Hyp]G[2Thi]S[Gly(N-cHex)][2Thi]R-OH; N-terminus and C-terminus assumed)
potency (EC50) for IP1 formation, B2R- versus B2R(Ø)-transfected cells ([5]; comparison of EC50 between B2R and B2R(Ø), unpaired t-test): no significant difference in potencies (EC50 values)
maximal levels of phospho-ERK1/2 (AlphaLISA), B2R(Ø) versus B2R [7]: decreased maximal levels of phospho-ERK1/2
recruitment of β-arrestin2, cells expressing or not AltB2R ([8]; BRET, B2R versus B2R(Ø), BK: data not shown): no difference in the recruitment of β-arrestin2

Molecule: desArg^10-KD: carboxy-terminally truncated peptide metabolite (KRPPGFSPF; Lysyl-bradykinin; UniProt P01042 380-388, looked up, fragment)
kinin receptor selectivity (B1R): selectively bind to the other type of kinin receptor, the inducible B1R

binding affinity, B2R versus B2R(Ø) [4]: same affinities
Molecule: CC(=O)Nc1ccc(/C=C/C(=O)NCC(=O)N(C)c2ccc(Cl)c(COc3cccc4ccc(C)nc34)c2Cl)cn1 [FR173657]
